# Assay results: patent US20240207141A1, “PEPTIDE HAVING REPARATIVE DENTIN-REGENERATING ACTIVITY AND USE THEREOF” (SEOUL NATIONAL UNIVERSITY R&DB FOUNDATION, priority 2022, published 2024)
# No end group written: not given here.
# B1: vitronectin: human plasma vitronectin purchased from Millipore, used as a positive control (protein, UniProt P04004 20-478, looked up)
# Vitronectin: DQESCKGRCTEGFNVDKKCQCDELCSYYQSCCTDYTAECKPQVTRGDVFTMPEDEYTVYDDGEEKNNATVHEQVGGPSLTSDLQAQSKGNPEQTPVLKPEEEAPAPEVGASKPEGIDSRPETLHPGRPQPPAEEELCSGKPFDAFTDLKNGSLFAFRGQYCYELDEKAVRPGYPKLIRDVWGIEGPIDAAFTRINCQGKTYLFKGSQYWRFEDGVLDPDYPRNISDGFDGIPDNVDAALALPAHSYSGRERVYFFKGKQYWEYQFQHQPSQEECEGSSLSAVFEHFAMMQRDSWEDIFELLFWGRTSAGTRQPQFISRDWHGVPGQVDAAMAGRIYISGMAPRPSLAKKQRFRHRNRKGYRSQRGHSRGRNQNSRRPSRATWLSLFSSEESNLGANNYDDYRMDWLVPATCEPIQSVFFFSGDKYYRVNLRTRRVDTVDPPYPRSIAQYWLGCPAPGHL
# Columns and labels:
# rat pulp exposure model = assay: Rat tooth pulp exposure model, histologic analysis (H&E) of inflammatory response and hard tissue formation; type: in vivo
# Protocol: Seven-week-old male Sprague-Dawley rats were purchased from the OrientBio after approval from the Institutional Animal Care and Use Committee of Seoul National University (No. SNU-180109-2) was obtained. […] Resin cement (Rely X U-200, 3M ESPE, MN, USA) was used as the final restoration in all experimental groups.
# Specifically, the rats were anesthetized by the intraperitoneal injection of 31.25 mg/kg tiletamine/zolazepam and 8.75 mg/kg xylazine. After ascertaining the general anesthesia, the oral cavity was opened with a customized wire to expose the lower first molars. After cleaning and sanitizing with both 3% H2O2 and a 10% Betadine-soaked cotton, the center of the occlusal surface was carefully punctured using a #¼ round bur (0.5 mm in diameter) with a high-speed hand piece. MTA (ProRoot MTA, Dentsply Sirona, York, PA, USA) was mixed according to the manufacturer's instruction and the mixture was applied to the exposed pulp. […] The punctured sites were covered with resin cement after the application of MTA or the collagen sponge. In the Resin group, resin cement was directly applied to the punctured site. The sharp cusp tips of the upper molar and lower first molar were grinded using a football shaped diamond bur in order to prevent tooth fractures by mastication.
# Rats were histologically analyzed 2 and 4 weeks after pulp exposure surgery. Whole mandibles were fixed f in 4% paraformaldehyde at 4° ° C. for 24 hours. For histological staining, the specimens were decalcified with 12% EDTA for 4 weeks and embedded in paraffin. […] Each sample was evaluated and scored for inflammatory response and hard tissue formation according to the criteria presented in [Table 2] below.
# [1] = system: human dental pulp cells (hDPCs); assay: Cell viability assay of hDPCs (water-soluble tetrazolium salt); type: cell-based; settings: 50, 100 and 200 μg/ml, 24 or 48 hours
# Protocol: Human dental pulp cells (hDPCs) were collected from the patient's third molars after patient consent and approval from the Institutional Review Board (IRB) of Seoul National University Dental Hospital (IRB No. CRI19007) were obtained. The hDPCs were passaged three times in Dulbecco's modified Eagle's medium (DMEM; Gibco BRL, Carlsbad, CA, USA) supplemented with 10% fetal bovine serum (FBS) and 1% penicillin/streptomycin (10,000 U/ml penicillin, 10,000 μg/ml streptomycin; Gibco, Paisley, Scotland). In order to induce odontogenic differentiation, the hDPCs were then cultured using DMEM supplemented with 10% FBS, 1% penicillin/streptomycin, 10 mM β-glycerophosphate, 200 μM ascorbic acid, and 0.1 μM dexamethasone.
# The viability of hDPCs in the presence of VnP-16 was investigated using an Cytox Cell Viability Assay Kit (DoGenBio, Seoul, Korea). A 96-well culture plate was treated with 50, 100 and 200 μg/ml VnP-16, and then 1.5×10^4 cells were plated into each well, and incubated for 24 or 48 hours at 37° C. The water-soluble tetrazolium salt reagent ([…] ) was added to each well, and the plate was incubated at 37 °C for 2 hours. Finally, absorbance at 450 nm was measured using a microplate reader (Epoch2, Bio-Tek, VT, USA).
# [2] = system: human dental pulp cells (hDPCs); assay: Scratch wound migration assay; type: cell-based; settings: vitronectin 1.25 μg/ml, VnP-16 50 μg/ml; 0, 24 and 48 hours
# Protocol: In order to evaluate the migration ability and wound healing ability of hDPCs, the scratch assay was used. The hDPCs were plated in a 24-well plate and incubated in complete medium until 80% confluence. Then, the cells were passaged in serum-free medium for 24 hours, and then stimulated by scratching with a 200 μl pipette tip. After PBS washing to remove cell debris, the cultures were treated with vehicle (10% DMSO), vitronectin (1.25 μg/ml), SP (50 μg/ml), or VnP-16 (50 μg/ml). Pictures were taken using a microscope (Nikon, Tokyo, Japan) at 0, 24 and 48 hours after treatment. The data were analyzed using Image Pro Plus software (version 4.5; Media Cybernetics, MD, USA) to compare the percentage of scratch closure from 0 hour to 48 hours time point. The percentage of: scratch closure was calculated by the following equation: Scratch closure %=[A (0)−A(t)/A(0)]×100. Wherein the scratch area at time zero is “A (0)”; and the area after the incubation time (t) is “A(t)”. The scratch wound migration assay was performed in triplicate.
# [3] = system: human dental pulp cells (hDPCs); assay: hDPCs cell attachment assay on coated plates; type: cell-based; settings: immobilized on plates (vitronectin 0.26 μg/cm2, peptides 10.5 μg/cm2), 1 hour
# Protocol: First, for the cell attachment assay, 48-well culture plates were coated with human plasma vitronectin (0.26 μg/cm2) at 4° C. for 24 hours. The SP and VnP-16 (10.5 μg/cm2) were also coated on the plates by drying at room temperature for 24 hours. […] The peptide-coated plates were blocked with 1% heat-inactivated bovine serum albumin (BSA) in phosphate-buffered saline (PBS) at 37° ° C. for 1 hour, and then washed with PBS. The hDPCs (5×10^4 cells/250 μL) were added to each plate and incubated at 37° ° C. for 1 hour, and then unattached cells were removed by rinsing the plates twice with PBS. The attached cells were fixed with 10% formalin for 15 minutes and stained with 0.5% crystal violet for 1 hour. The plates were then gently washed three times with double-distilled water. Afterwards, the contents of each well were solubilized in 2% sodium dodecyl sulfate for 5 minutes, and then absorbance at 570 nm was measured using a microplate reader.
# [4] = system: human dental pulp cells (hDPCs); assay: hDPCs cell spreading assay on coated plates; type: cell-based; settings: immobilized on plates (vitronectin 0.26 μg/cm2, peptides 10.5 μg/cm2), 3 hours
# Protocol: In addition, for the cell spreading assay, hDPCs (3×10^4 cells/250 μL) were incubated at 37° ° C. for 3 hours on each peptide-coated plate in the same manner as above. The attached cells were fixed with 10% formalin and stained with 0.5% crystal violet for 1 hour. Then, the plates were gently washed three times with PBS, and then the degree of cell spreading was assessed by measuring the surface area of the cells using Image Pro Plus software (version 4.5; Media Cybernetics, Silver Spring, MD, USA).
molecule,measurement,setting,value
"FVWRQFYKYEKG [SP, scrambled peptide used as a negative control]",newly formed mineralized tissues at the pulp-exposed sites,rat pulp exposure model; 2 weeks after pulp exposure surgery,hardly detected
same,hard tissue formation,rat pulp exposure model; 4 weeks after pulp exposure surgery,showed hard tissue formation
same,quality of the reparative dentin,"rat pulp exposure model; 4 weeks after pulp exposure surgery, H&E",non-tubular and large cell-inclusion structure
RVYFFKGKQYWE-NH2 [VnP-16],cytotoxicity to hDPCs (cell viability),[1],no cytotoxicity
B1,wound migration of hDPCs (scratch closure),[2],strongly promoted the wound migration
same,cell attachment of hDPCs,[3],strongly promoted cell attachment and spreading
same,cell spreading of hDPCs,[4],strongly promoted cell attachment and spreading
